Patent US7608620B2, “LPAAT-β inhibitors and uses thereof” (Cell Therapeutics, Inc., priority 2000, dated 2009)

Target: T1, LPAAT-β (Homo sapiens, UniProt O15120)
T1 construct: the full-length human LPAAT-β cDNA was amplified by PCR; made in house; host or cells: Sf9 insect cells (baculovirus, pFastBac HTc); membrane fraction
T1 sequence (O15120 24-278): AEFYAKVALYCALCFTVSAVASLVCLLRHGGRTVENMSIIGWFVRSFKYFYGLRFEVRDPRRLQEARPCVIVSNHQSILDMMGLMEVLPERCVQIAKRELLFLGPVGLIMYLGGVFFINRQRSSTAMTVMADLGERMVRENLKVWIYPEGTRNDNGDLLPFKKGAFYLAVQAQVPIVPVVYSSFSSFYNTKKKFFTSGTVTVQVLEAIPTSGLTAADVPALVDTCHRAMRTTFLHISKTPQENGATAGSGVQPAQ
Test: LPAATβ colorimetric assay (DTNB detection of released CoA)
Format: biochemical
Settings: Sf9 cell membrane overexpressing LPAAT-β
Procedure: For the construction of Baculovirus expression vectors, the full-length human LPAAT-β cDNA was amplified by PCR from the DNA template pCE9.LPAAT-β (West et al., DNA Cell Biol. 16:691-701 (1997)) using the primers 5′-TGATATCCGAAGAAGATCTTATGGAGCTGTGGCCGTGTC-3′ (olpb1F; SEQ ID NO:3) and 5′-CAGGCTCTAG ACTACTGGGC CGGCTGCAC-3′ (olpb1R; SEQ ID NO:4). The ˜870 bp fragment generated was reamplified by PCR using the primers 5° CCTACGTCG ACATGGAACAAAAATTGATATCCGAAGAAGATC-3′ (olpb2F; SEQ ID NO:5) and 5′-CAGGCTCTAG ACTACTGGGC CGGCTGCAC-3′ (olpb1R; SEQ ID NO:6). The ˜890 bp fragment generated was then cleaved with Sal I and Xba I for insertion into pFastBac™ HTc vector (Life Technologies, Gaithersberg, Md.) between the Sal I and Xba I sites for the generation of the plasmid pFB.LPAAT-β. This plasmid was then transformed into E. coli DH10Bac™ (Life Technologies, Gaithersberg, Md.) for the generation of recombinant Bacmid DNA for transfection into HighFive (Invitrogen, San Diego, Calif.) or SF9 insect cells for the production of recombinant Baculovirus stocks using the protocol described in the Bac-to-Bac® Baculovirus Expression System (Life Technologies, Gaithersberg, Md.), a eukaryotic expression system for generating recombinant baculovirus through site- specific transposition in E. coli. Viral stocks harvested from the transfected cells can then be used to infect fresh insect cells for the subsequent expression of LPAAT-β fusion protein with a poly-histidine tag and a myc-epitope near its N-terminus. The membrane fraction from these Sf9 cells would be the source of LPAAT enzyme.
For the preparation of membranes From Sf9 Cells, all steps are performed on ice or at 4° C. Sf9 cell pellets (˜10^8 cells) were thawed and resuspended in 1-2 ml of buffer A (20 mM Hepes, pH 7.5, 1 mM DTT, 1 mM EDTA, 20% w/v glycerol, 1 mM Benzamidine, 1 μg/ml soybean trypsin inhibitor (SBTI), 1 μg/ml pepstatin A) w/o DTT but with 1 mM Pefabloc. The cells were lysed by sonication using a Branson Sonifier at output=2, duty cycle=2, 10 pulses each at 10 s. with the tip of small sonicator probe submerged but not touching the walls. DTT was then added to 1 mM from a 1 M stock. The samples were centrifuged at 1500 rpm for 5 min. The low speed supernatant was saved and centrifuged (TLA 100.3 rotor, polycarbonate tubes, 2 ml/tube or 1.5 ml/tube minimum) at 100000×g for 1 hr. The high speed pellet was resuspend in Buffer A with a probe sonicator (10 pulses @ output #2 and duty cycle 20%) as a source of LPAAT enzyme.
LPAAT-β catalyzes the transfer of an acyl group from a donor such as acyl-CoA to LPA. The transfer of the acyl group from acyl-CoA to LPA leads to the release of free CoA, which can be reacted with the thiol reagent, 5,5′-dithiobis(2-nitrobenzoic acid) (DTNB). The reaction between DTNB and the free sulfhydryl group from CoA generates a yellow-colored product, 3-carboxylato-4-nitrothiophenolate (CNP), that absorbs at 413 nm. LPAAT-β derived from Sf9 cell membrane overexpressing LPAAT-β were resuspended in HEPES saline buffer (20 mM HEPES pH 7.5, 150 mM NaCl), 1 mg/ml BSA and 72 μl aliquots were distributed into 96-well microtiter plates. 8 μl of compound of interest at 200 μM dissolved in 100% DMSO was added into each well. 20 μl of 1 mM 18:1-CoA and 1 mM sn-1-18: 1 lysoPA was then added to each well to initiate the reaction and allowed to run at room temperature for 25 min. 100 μl of 1 mM DTNB in 100% ethanol was then added to each well to quench the reaction and for color development. The absorbance at 405 nm, measured using a spectrophotometer plate reader, is proportional to the activity of LPAAT-β in the sample. This colorimetric assay was used for the high throughput screening of LPAAT inhibitors. […] Compounds that gave a reading of less than 0.06 arbitrary units (indicated by arrow on right margin) were selected for further study.

First: COc1ccc(Nc2nc(Cl)nc(Nc3ccc(Cl)cc3)n2)cc1 [CT-31867, 6-chloro-N-(4-chlorophenyl)-N′-(4-methoxy-phenyl)-[1,3,5]triazine-2,4-diamine]
Second: COc1ccc(Nc2nc(Cl)nc(Nc3ccccc3)n2)cc1 [CT-31942, 6-chloro-N-(4-methoxyphenyl)-N′-phenyl-[1,3,5]triazine-2,4-diamine]
The IC50 of the first is 1.9-fold higher: 750 nM for the first, 400 nM for the second. The second is the more potent here.

Compared with `CSc1nc(Nc2ccccc2)nc(Nc2ccc(Cl)cc2)n1` [CT-31888, N-(4-chlorophenyl)-6-methylsulfanyl-N′-phenyl-[1,3,5]triazine-2,4-diamine], `Clc1nc(Nc2ccccc2)nc(Nc2ccc3c(c2)OCO3)n1` [CT-32042, N-benzo[1,3]dioxol-5-yl-6-chloro-N′-phenyl-[1,3,5]triazine-2,4-diamine] is 16-fold lower in IC50: 3100 nM for the first, 200 nM for the second.

Going from `Clc1ccc(Nc2nc(Cl)nc(Nc3ccc4c(c3)OCO4)n2)cc1` [CT-31978, N-benzo[1,3]dioxol-5-yl-6-chloro-N′-(4-chlorophenyl)-[1,3,5]triazine-2,4-diamine] to `Clc1nc(Nc2ccccc2)nc(Nc2ccc3c(c2)OCCO3)n1` [CT-32028, 6-chloro-N-(2,3-dihydrobenzo[1,4]dioxin-6-yl)-N′-phenyl-[1,3,5]triazine-2,4-diamine], the IC50 falls from 1000 nM to 200 nM (5-fold).

Going from `Clc1nc(Nc2ccccc2)nc(Nc2ccc3c(c2)CCC3)n1` [CT-32099, 6-chloro-N-indan-5-yl-N′-phenyl-[1,3,5]triazine-2,4-diamine] to `CCCNc1nc(Cl)nc(Nc2ccc(Cl)cc2)n1` [CT-116988, 6-chloro-N-2-(4-chlorophenyl)-N-4-propyl-[1,3,5]triazine-2,4-diamine], the IC50 falls from 650 nM to 160 nM (4.1-fold).

In the case of `CCCNc1nc(Nc2ccc(Cl)cc2)nc(OC)n1` [CT-117147, N-(4-chlorophenyl)-6-methoxy-N′-propyl-[1,3,5]triazine-2,4-diamine], the IC50 is reported as 3800 nM.
